# Source: patent publication US20020111274A1, “1-alkyl-3-[1-(substituted phenyl) benzotriazol-6-yl] uracils” (BASF Aktiengesellschaft, priority 2000, published 2002)
# How the values were obtained:
# Parameters in all cases: scale not given here
# [1] = test system: ECHOG Barnyardgrass; experiment: Preemergence herbicidal evaluation, ECHOG; type: in vivo, Echinochloa crus-galli, (L.) Beau; settings: preemergence
# Summary of the method: (§1)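 Seeds mixed with potting soil in cups, then sprayed preemergence with aqueous acetone test solution at about 0.013 to 0.800 kg per hectare equivalent. Cups kept under standard greenhouse care; plants rated on a visual scale four to five weeks after treatment.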
# [2] = test system: IPOHE Morningglory, Ivyleaf; experiment: Postemergence herbicidal evaluation, IPOHE; type: in vivo, Ipomoea hederacea, (L.) Jacq.; settings: postemergence spray, rated about two-three weeks after treatment
# Summary of the method: (§2)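 Postemergence spray, 40 psi nozzle, on ~2-week seedlings. Carrier: acetone/water 80/20, 1.0% methylated seed oil; dose ~0.006–0.400 kg/ha. Scored visually at 2–3 weeks.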
# [3] = test system: GALAP Galium; experiment: Preemergence herbicidal evaluation, GALAP; type: in vivo, Galium aparine; settings: preemergence
# Summary of the method: as §1
# [4] = test system: SETVI Foxtail, Green; experiment: Preemergence herbicidal evaluation, SETVI; type: in vivo, Setaria viridis, (L.) Beau; settings: preemergence
# Summary of the method: as §1
# [5] = test system: TRZAWR Wheat, Winter, cv Riband; experiment: Postemergence herbicidal evaluation, TRZAWR; type: in vivo, Triticum aestivum; settings: postemergence spray, rated about two-three weeks after treatment
# Summary of the method: as §2
# [6] = test system: ABUTH Velvetleaf; experiment: Preemergence herbicidal evaluation, ABUTH; type: in vivo, Abutilon theophrasti, Medic.; settings: preemergence
# Summary of the method: as §1
# [7] = test system: SETVI Foxtail, Green; experiment: Postemergence herbicidal evaluation, SETVI; type: in vivo, Setaria viridis, (L.) Beau; settings: postemergence spray, rated about two-three weeks after treatment
# Summary of the method: as §2
# [8] = test system: ZEAMX Corn, Field; experiment: Postemergence herbicidal evaluation, ZEAMX; type: in vivo, Zea mays, L. (Sammel-Bezeichnung); settings: postemergence spray, rated about two-three weeks after treatment
# Summary of the method: as §2
# [9] = test system: AMBEL Ragweed, Common; experiment: Preemergence herbicidal evaluation, AMBEL; type: in vivo, Ambrosia artemisifolia, L.; settings: preemergence
# Summary of the method: as §1
# [10] = test system: ECHOG Barnyardgrass; experiment: Postemergence herbicidal evaluation, ECHOG; type: in vivo, Echinochloa crus-galli, (L.) Beau; settings: postemergence spray, rated about two-three weeks after treatment
# Summary of the method: as §2
# [11] = test system: CASOB Sicklepod; experiment: Preemergence herbicidal evaluation, CASOB; type: in vivo, Cassia obtusifolia, L.; settings: preemergence
# Summary of the method: as §1
# [12] = test system: ABUTH Velvetleaf; experiment: Postemergence herbicidal evaluation, ABUTH; type: in vivo, Abutilon theophrasti, Medic.; settings: postemergence spray, rated about two-three weeks after treatment
# Summary of the method: as §2
# [13] = test system: ZEAMX Corn, Field; experiment: Preemergence herbicidal evaluation, ZEAMX; type: in vivo, Zea mays, L. (Sammel-Bezeichnung); settings: preemergence
# Summary of the method: as §1
# [14] = test system: IPOHE Morningglory, Ivyleaf; experiment: Preemergence herbicidal evaluation, IPOHE; type: in vivo, Ipomoea hederacea, (L.) Jacq.; settings: preemergence
# Summary of the method: as §1
# [15] = test system: CHEAL Lambsquarters, Common; experiment: Preemergence herbicidal evaluation, CHEAL; type: in vivo, Chenopodium album, L.; settings: preemergence
# Summary of the method: as §1
# [16] = test system: CHEAL Lambsquarters, Common; experiment: Postemergence herbicidal evaluation, CHEAL; type: in vivo, Chenopodium album, L.; settings: postemergence spray, rated about two-three weeks after treatment
# Summary of the method: as §2
# [17] = test system: AMBEL Ragweed, Common; experiment: Postemergence herbicidal evaluation, AMBEL; type: in vivo, Ambrosia artemisifolia, L.; settings: postemergence spray, rated about two-three weeks after treatment
# Summary of the method: as §2
# [18] = test system: CASOB Sicklepod; experiment: Postemergence herbicidal evaluation, CASOB; type: in vivo, Cassia obtusifolia, L.; settings: postemergence spray, rated about two-three weeks after treatment
# Summary of the method: as §2
# [19] = test system: TRZAWR Wheat, Winter, cv Riband; experiment: Preemergence herbicidal evaluation, TRZAWR; type: in vivo, Triticum aestivum; settings: preemergence
# Summary of the method: as §1
# [20] = test system: GLXMAW Soybean, Williams; experiment: Preemergence herbicidal evaluation, GLXMAW; type: in vivo, Glycine max, (L.) Merr. cv Williams; settings: preemergence
# Summary of the method: as §1
# [21] = test system: ORYSAT Rice, Tebonnet; experiment: Preemergence herbicidal evaluation, ORYSAT; type: in vivo, Oryza sativa, (L.); settings: preemergence
# Summary of the method: as §1
# [22] = test system: ORYSAT Rice, Tebonnet; experiment: Postemergence herbicidal evaluation, ORYSAT; type: in vivo, Oryza sativa, (L.); settings: postemergence spray, rated about two-three weeks after treatment
# Summary of the method: as §2
# [23] = test system: GLXMAW Soybean, Williams; experiment: Postemergence herbicidal evaluation, GLXMAW; type: in vivo, Glycine max, (L.) Merr. cv Williams; settings: postemergence spray, rated about two-three weeks after treatment
# Summary of the method: as §2
# [24] = test system: GALAP Galium; experiment: Postemergence herbicidal evaluation, GALAP; type: in vivo, Galium aparine; settings: postemergence spray, rated about two-three weeks after treatment
# Summary of the method: as §2
smiles,measurement,setting,value
Cc1ccc(-n2nnc3cc(F)c(-n4c(=O)cc(C(F)(F)F)n(C)c4=O)cc32)cc1C [Example 23],ECHCG herbicidal rating,[1]; rate 0.016 kg/ha,0.0
same,ECHCG herbicidal rating,[1]; rate 0.032 kg/ha,2.0
same,ECHCG herbicidal rating,[1]; rate 0.062 kg/ha,5.0
same,ECHCG herbicidal rating,[1]; rate 0.125 kg/ha,8.0
same,Postemergence herbicidal rating IPOHE,[2]; 0.008 kg/ha,2.0
same,Postemergence herbicidal rating IPOHE,[2]; 0.016 kg/ha,9.0
same,Postemergence herbicidal rating IPOHE,[2]; 0.032 kg/ha,9.0
same,Postemergence herbicidal rating IPOHE,[2]; 0.062 kg/ha,9.0
same,GALAP herbicidal rating,[3]; rate 0.016 kg/ha,0.0
same,GALAP herbicidal rating,[3]; rate 0.032 kg/ha,0.0
same,GALAP herbicidal rating,[3]; rate 0.062 kg/ha,0.0
same,GALAP herbicidal rating,[3]; rate 0.125 kg/ha,0.0
same,SETVI herbicidal rating,[4]; rate 0.016 kg/ha,3.0
same,SETVI herbicidal rating,[4]; rate 0.032 kg/ha,8.0
same,SETVI herbicidal rating,[4]; rate 0.062 kg/ha,9.0
same,SETVI herbicidal rating,[4]; rate 0.125 kg/ha,9.0
same,Postemergence herbicidal rating TRZAWR,[5]; 0.008 kg/ha,4.0
same,Postemergence herbicidal rating TRZAWR,[5]; 0.016 kg/ha,4.5
same,Postemergence herbicidal rating TRZAWR,[5]; 0.032 kg/ha,5.5
same,Postemergence herbicidal rating TRZAWR,[5]; 0.062 kg/ha,6.5
same,ABUTH herbicidal rating,[6]; rate 0.016 kg/ha,0.0
same,ABUTH herbicidal rating,[6]; rate 0.032 kg/ha,3.0
same,ABUTH herbicidal rating,[6]; rate 0.062 kg/ha,9.0
same,ABUTH herbicidal rating,[6]; rate 0.125 kg/ha,9.0
same,Postemergence herbicidal rating SETVI,[7]; 0.008 kg/ha,7.0
same,Postemergence herbicidal rating SETVI,[7]; 0.016 kg/ha,9.0
same,Postemergence herbicidal rating SETVI,[7]; 0.032 kg/ha,9.0
same,Postemergence herbicidal rating SETVI,[7]; 0.062 kg/ha,9.0
same,Postemergence herbicidal rating ZEAMX,[8]; 0.008 kg/ha,5.5
same,Postemergence herbicidal rating ZEAMX,[8]; 0.016 kg/ha,7.0
same,Postemergence herbicidal rating ZEAMX,[8]; 0.032 kg/ha,8.0
same,Postemergence herbicidal rating ZEAMX,[8]; 0.062 kg/ha,8.5
same,AMBEL herbicidal rating,[9]; rate 0.016 kg/ha,0.0
same,AMBEL herbicidal rating,[9]; rate 0.032 kg/ha,0.0
same,AMBEL herbicidal rating,[9]; rate 0.062 kg/ha,0.0
same,AMBEL herbicidal rating,[9]; rate 0.125 kg/ha,1.0
same,Postemergence herbicidal rating ECHCG,[10]; 0.008 kg/ha,0.0
same,Postemergence herbicidal rating ECHCG,[10]; 0.016 kg/ha,0.0
same,Postemergence herbicidal rating ECHCG,[10]; 0.032 kg/ha,0.0
same,Postemergence herbicidal rating ECHCG,[10]; 0.062 kg/ha,0.0
same,CASOB herbicidal rating,[11]; rate 0.016 kg/ha,0.0
same,CASOB herbicidal rating,[11]; rate 0.032 kg/ha,0.0
same,CASOB herbicidal rating,[11]; rate 0.062 kg/ha,0.0
same,CASOB herbicidal rating,[11]; rate 0.125 kg/ha,0.0
same,Postemergence herbicidal rating ABUTH,[12]; 0.008 kg/ha,9.0
same,Postemergence herbicidal rating ABUTH,[12]; 0.016 kg/ha,9.0
same,Postemergence herbicidal rating ABUTH,[12]; 0.032 kg/ha,9.0
same,Postemergence herbicidal rating ABUTH,[12]; 0.062 kg/ha,9.0
same,ZEAMX herbicidal rating,[13]; rate 0.016 kg/ha,0.0
same,ZEAMX herbicidal rating,[13]; rate 0.032 kg/ha,0.0
same,ZEAMX herbicidal rating,[13]; rate 0.062 kg/ha,0.0
same,ZEAMX herbicidal rating,[13]; rate 0.125 kg/ha,4.0
same,IPOHE herbicidal rating,[14]; rate 0.016 kg/ha,0.0
same,IPOHE herbicidal rating,[14]; rate 0.032 kg/ha,0.0
same,IPOHE herbicidal rating,[14]; rate 0.062 kg/ha,0.0
same,IPOHE herbicidal rating,[14]; rate 0.125 kg/ha,1.0
same,CHEAL herbicidal rating,[15]; rate 0.016 kg/ha,0.0
same,CHEAL herbicidal rating,[15]; rate 0.032 kg/ha,7.0
same,CHEAL herbicidal rating,[15]; rate 0.062 kg/ha,9.0
same,CHEAL herbicidal rating,[15]; rate 0.125 kg/ha,9.0
same,Postemergence herbicidal rating CHEAL,[16]; 0.008 kg/ha,3.0
same,Postemergence herbicidal rating CHEAL,[16]; 0.032 kg/ha,4.0
same,Postemergence herbicidal rating CHEAL,[16]; 0.062 kg/ha,9.0
same,Postemergence herbicidal rating AMBEL,[17]; 0.008 kg/ha,0.0
same,Postemergence herbicidal rating AMBEL,[17]; 0.016 kg/ha,0.0
same,Postemergence herbicidal rating AMBEL,[17]; 0.032 kg/ha,4.0
same,Postemergence herbicidal rating AMBEL,[17]; 0.062 kg/ha,9.0
same,Postemergence herbicidal rating CASOB,[18]; 0.008 kg/ha,0.0
same,Postemergence herbicidal rating CASOB,[18]; 0.016 kg/ha,0.0
same,Postemergence herbicidal rating CASOB,[18]; 0.032 kg/ha,0.0
same,Postemergence herbicidal rating CASOB,[18]; 0.062 kg/ha,3.0
same,TRZAWR herbicidal rating,[19]; rate 0.016 kg/ha,0.0
same,TRZAWR herbicidal rating,[19]; rate 0.032 kg/ha,0.0
same,TRZAWR herbicidal rating,[19]; rate 0.062 kg/ha,1.0
same,TRZAWR herbicidal rating,[19]; rate 0.125 kg/ha,3.0
same,GLXMAW herbicidal rating,[20]; rate 0.016 kg/ha,0.0
same,GLXMAW herbicidal rating,[20]; rate 0.032 kg/ha,0.0
same,GLXMAW herbicidal rating,[20]; rate 0.062 kg/ha,0.0
same,GLXMAW herbicidal rating,[20]; rate 0.125 kg/ha,0.0
same,ORYSAT herbicidal rating,[21]; rate 0.016 kg/ha,0.0
same,ORYSAT herbicidal rating,[21]; rate 0.032 kg/ha,0.0
same,ORYSAT herbicidal rating,[21]; rate 0.062 kg/ha,0.0
same,ORYSAT herbicidal rating,[21]; rate 0.125 kg/ha,0.0
same,Postemergence herbicidal rating ORYSAT,[22]; 0.008 kg/ha,2.5
same,Postemergence herbicidal rating ORYSAT,[22]; 0.016 kg/ha,3.0
same,Postemergence herbicidal rating ORYSAT,[22]; 0.032 kg/ha,3.5
same,Postemergence herbicidal rating ORYSAT,[22]; 0.062 kg/ha,4.0
same,Postemergence herbicidal rating GLXMAW,[23]; 0.008 kg/ha,3.5
same,Postemergence herbicidal rating GLXMAW,[23]; 0.016 kg/ha,4.5
same,Postemergence herbicidal rating GLXMAW,[23]; 0.032 kg/ha,4.5
same,Postemergence herbicidal rating GLXMAW,[23]; 0.062 kg/ha,4.5
same,Postemergence herbicidal rating GALAP,[24]; 0.008 kg/ha,0.0
same,Postemergence herbicidal rating GALAP,[24]; 0.016 kg/ha,2.0
same,Postemergence herbicidal rating GALAP,[24]; 0.032 kg/ha,2.0
same,Postemergence herbicidal rating GALAP,[24]; 0.062 kg/ha,2.0
